Assay results reported in patent publication US5981517A, “Androstene derivatives” (priority 1997, dated 1999).

Legend:
skin = assay: Skin weight test, 10 days of topical treatment in the rat; assay type: in vivo, Male Sprague-Dawley rats
Description: Male Sprague-Dawley rats, weighing about 210 g, were lightly anesthetized with ether, shaved and marked in three areas on each flank with intradermally injected blue ink. […] Treated control animals received daily topical administration of the vehicle (DMF) alone. Solvent and test compound solutions (10 μL) were applied once daily for 10 consecutive days, with […] necessary. On the eleventh day, the animals were sacrificed, their skins were removed and 16 mm diameter plugs were punched out from each area. The plugs were scraped carefully to remove subcutaneous fat and muscle, then they were blotted on filter paper and weighed. Skin atrophy is a known side effect associated with topically applied anti-inflammatory steroids.

thymi = tested on: thymi; set-up: species or system male Sprague-Dawley rats; settings: rat, in vivo, sc
Description: Several further studies were undertaken to determine the effects of a selected compound of the invention and prior art steroids on thymi weights in rats when the drugs were systemically administered. In each of these studies, male Sprague-Dawley rats were used. The test compounds were suspended in 0.5% CMC (carboxymethylcellulose) and injected subcutaneously once daily for three days. On the fifth day (48 hours following the last treatment), the animals were sacrificed and the thymi weights were recorded. Body weight gains were measured 24 hours after the last treatment. From the test results, the TED40 's (thymolytic effective doses, that is, doses required to achieve 40% inhibition of thymi weight) and relative potencies of a representative compound of the invention and reference steroids were calculated. […] It is evident that the higher the inhibition of thymus activity at a given dose, the more toxic the compound is.

granuloma / thymolysis = assay: Comparison of local effect and systemic side-effects (therapeutic index); assay type: in vivo, rat; settings: granuloma relative potency / thymolysis relative potency
Description: The test compound was dissolved in acetone and aliquots of varying concentrations were injected into cotton pellets. The pellets were dried and then one pellet was implanted beneath the skin of each test rat. Six days later, the animals were sacrificed and the granulation tissue (granuloma) which formed in and around the implanted pellet was removed, dried and weighed. In addition, the thymi and adrenals were removed and weighed.
Several further studies were undertaken to determine the effects of a selected compound of the invention and prior art steroids on thymi weights in rats when the drugs were systemically administered. In each of these studies, male Sprague-Dawley rats were used. The test compounds were suspended in 0.5% CMC (carboxymethylcellulose) and injected subcutaneously once daily for three days. On the fifth day (48 hours following the last treatment), the animals were sacrificed and the thymi weights were recorded. Body weight gains were measured 24 hours after the last treatment.
The ED50 's calculated for the local cotton pellet granuloma assay and the TED40 's calculated on the basis of thymus inhibition testing as described above were used to arrive at relative potency and a therapeutic index for a representative species of the invention as compared to prior art steroids.

[1] = tested on: forearms of a human volunteer; assay: Further human vasoconstriction testing, Method 1; assay type: in vivo
Description: The mixtures, in 50 μL amounts, were applied to circular patches (8 mm diameter). After evaporation of ethanol, the patches were applied to the forearms of a human volunteer, and covered with a water impervious film for 3 hr. The intensity of vasoconstriction (scale 0-4) was judged at various time intervals after removal of the patches. The grading scale was as follows: 0, normal skin; 1, slight pallor of indistinct outline; 2, pallor with at least two corners outlined; 3, even pallor with a clear outline of the application sites; 4, very intense pallor. The skin tests (2-4 tests on each compound) were performed on the same person.

[2] = target: T1, rat lung glucocorticoid receptor (Rattus norvegicus, UniProt P06536); assay: Receptor binding studies ([3H]triamcinolone acetonide displacement); settings: further receptor binding studies (Table X); dexamethasone = 100; * mean ± SE of 3-5 results
T1 construct: Immediately after resection of the lungs, the tissue was frozen in ice; The cytosol was prepared; from tissue; host or cells: lung cytosol of adrenalectomized male Sprague-Dawley rats
T1 sequence (P06536 1-795): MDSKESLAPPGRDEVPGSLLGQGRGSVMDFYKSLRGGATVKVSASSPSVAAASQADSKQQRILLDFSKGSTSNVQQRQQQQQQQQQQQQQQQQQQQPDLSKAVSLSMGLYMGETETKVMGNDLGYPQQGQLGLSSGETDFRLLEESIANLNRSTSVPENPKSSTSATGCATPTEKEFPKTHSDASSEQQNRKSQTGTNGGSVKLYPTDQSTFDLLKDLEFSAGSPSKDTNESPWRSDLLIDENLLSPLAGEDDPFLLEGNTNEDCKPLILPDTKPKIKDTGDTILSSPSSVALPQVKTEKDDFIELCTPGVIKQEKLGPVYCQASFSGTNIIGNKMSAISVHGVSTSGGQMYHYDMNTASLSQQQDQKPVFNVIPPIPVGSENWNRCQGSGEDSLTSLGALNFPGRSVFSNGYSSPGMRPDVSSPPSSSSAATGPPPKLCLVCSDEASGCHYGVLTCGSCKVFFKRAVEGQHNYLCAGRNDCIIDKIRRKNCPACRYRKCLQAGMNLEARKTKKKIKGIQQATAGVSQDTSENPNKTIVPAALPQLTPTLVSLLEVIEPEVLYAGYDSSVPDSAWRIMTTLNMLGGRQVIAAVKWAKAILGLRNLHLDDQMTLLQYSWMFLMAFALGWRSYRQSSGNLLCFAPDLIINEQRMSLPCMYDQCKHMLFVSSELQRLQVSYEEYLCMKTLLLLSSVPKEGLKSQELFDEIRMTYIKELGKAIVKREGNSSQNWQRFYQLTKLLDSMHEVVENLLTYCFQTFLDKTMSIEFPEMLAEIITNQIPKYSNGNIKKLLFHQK
Description: Male Sprague-Dawley rats, each weighing 150 to 200 g, were used 6 days after adrenalectomy. Rats were sacrificed by decapitation. Immediately after resection of the lungs, the tissue was frozen in ice. […] Portions (5 ml) of the cytosol were frozen in liquid nitrogen and stored at -80° C.
The cytosol was thawed in a water bath and diluted with 1 part of incubation buffer containing a 15 mM concentration of diisopropyl fluorophosphate. […] After a 2 hour incubation period at room temperature (24° C.), the unbound steroid was removed by addition of a 2% suspension of activated charcoal in incubation buffer (400 μL). The mixture was incubated for 5 minutes at room temperature and then was centrifuged at about 10,000 g for 3 minutes in the microcentrifuge. The radioactivity (cpm) in the supernatant (400 μL) was determined by liquid scintillation counting.
The data is fitted to the following logistic function:
B=T-T * C^N /(C^N +IC50^N)+NS,
where B=CPM in the presence of competitor, T=CPM in the absence of competitor, C=competitor concentration, N=Hill slope factor, and NS=cpm under non-specific binding conditions.
For the representative compound of the invention B, receptor binding affinity was investigated with and without Δ^1 -cortienic acid in the incubation solution to study the effect of Δ^1 -cortienic acid on the receptor binding.
Further studies to evaluate the relative receptor binding affinities of compounds of the invention, other compounds of formula (VII) hereinabove and well-known anti-inflammatory steroids were undertaken, using the methods described in the RECEPTOR BINDING STUDIES set forth above. […] For comparison purposes, the following compounds having formula (VII) above were also tested: […]

in vitro = in vitro ADME; settings: rat, lung cytosol
Description: To determine that the compounds of the invention can be stable during the incubation period, the test compounds A, B, C, and D were investigated for their stabilities at the incubation conditions, which are room temperature and 2 hours, for receptor binding studies. The frozen cytosol which was made for the receptor binding study was thawed in a water bath and diluted with 1 part of incubation buffer (10 mM Tris/HCl, 10 mM sodium molybdate, and 2 mM 1,4-dithiothreitol) containing a 15 mM concentration of enzyme inhibitor, diisopropyl fluorophosphate. Portions (560 μL) of the diluted cytosol were added to centrifuge tubes containing 80 μL portions of blank incubation buffer instead of volume of tracer ([^3 H]triamcinolone acetonide) which would be used in the receptor binding study (RBS), 80 μL of solution of a Δ^1 -cortienic acid (0.1 mM) in buffer (the final concentration of Δ^1 -cortienic acid in the incubation medium was […]), and 80 μL of 100,000 nM of concentrations of test compounds in ethanol to give a final concentration of 10,000 nM. This mixture was kept at room temperature for 2 hours. Samples of 0.1 mL were taken at appropriate time intervals (0, 0.5, 1, 1.5, 2 hours) and were mixed with 0.2 mL of acetonitrile containing 5% DMSO. Each mixture was centrifuged and the supernatant were injected in the HPLC.
Male Sprague-Dawley rats, each weighing 150 to 200 g, were used 6 days after adrenalectomy. Rats were sacrificed by decapitation. Immediately after resection of the lungs, the tissue was frozen in ice. The cytosol was prepared using a slight modification of a previously described method (Dahlberg, 1984); After addition of 6 volumes of ice-cold incubation buffer (10 mM Tris/HCl, 10 mM sodium molybdate, and 2 mM 1,4-dithiothreitol), the tissue was homogenized with the Virtis 45 homogenizer at full speed, for 4 periods of 10 seconds with a 10-second cooling period between each step. The homogenate was centrifuged at 35,000 g for 1 hour at 4° C. in a Beckman ultracentrifuge L8-70M equipped with a T170 rotor. Portions (5 ml) of the cytosol were frozen in liquid nitrogen and stored at -80° C.

CCC(=O)O[C@]1(C(=O)CCl)[C@@H](C)C[C@H]2[C@@H]3CCC4=CC(=O)C=C[C@]4(C)[C@@]3(F)[C@@H](O)C[C@@]21C [Clobetasol 17-propionate]
Wet skin weight, Treated, Decrease (skin; percent decrease of the control, treated flank): 21.2% | Wet skin weight, Untreated, Decrease (skin; percent decrease of the control, untreated flank): 19.2% | Body wt. gain (skin; topical 0.1%, daily dose 30 μg, 10 days): 24.2 ± 2.3 g | Thymus wt. (skin; topical 0.1%, daily dose 30 μg, 10 days, mean ± S.E.): 190 ± 14 mg | Wet skin weight, Treated (skin; treated left flank, topical 0.1%, 30 μg daily, 10 days, mean ± S.E.): 78.2 mg | Wet skin weight, Untreated (skin; untreated right flank, topical 0.1%, 30 μg daily, 10 days, mean ± S.E.): 67.6 ± 6.2 mg | Thymolysis, Relative Potency at ED40 Level (b) (thymi): 1927 | Therapeutic Index (a/b) (granuloma / thymolysis): 1.54

CCOC(=O)[C@@]1(OC(=O)CC)CC[C@H]2[C@@H]3CCC4=CC(=O)C=C[C@]4(C)[C@H]3[C@@H](O)C[C@@]21C [Compound P, reference compound]
Vasoconstriction activity ([1]; 3 Hours, 0.01 mM): 0 | Vasoconstriction activity ([1]; 3 Hours, 0.05 mM): 0 | Vasoconstriction activity ([1]; 3 Hours, 0.1 mM): 0 | Vasoconstriction activity ([1]; 3 Hours, 0.5 mM): 1 | Vasoconstriction activity ([1]; 3 Hours, 1 mM): 2 | Vasoconstriction activity ([1]; 3 Hours, 5 mM): 3 | Vasoconstriction activity ([1]; 20 Hours, 0.01 mM): 0 | Vasoconstriction activity ([1]; 20 Hours, 0.05 mM): 0 | Vasoconstriction activity ([1]; 20 Hours, 0.1 mM): 0 | Vasoconstriction activity ([1]; 20 Hours, 0.5 mM): 0 | Vasoconstriction activity ([1]; 20 Hours, 1 mM): 1 | Vasoconstriction activity ([1]; 20 Hours, 5 mM): 1 | Vasoconstriction activity ([1]; 24 Hours, 1 hour re-occlusion at 20-21 hours, 0.01 mM): 0 | Vasoconstriction activity ([1]; 24 Hours, 1 hour re-occlusion at 20-21 hours, 0.05 mM): 0 | Vasoconstriction activity ([1]; 24 Hours, 1 hour re-occlusion at 20-21 hours, 0.1 mM): 1 | Vasoconstriction activity ([1]; 24 Hours, 1 hour re-occlusion at 20-21 hours, 0.5 mM): 2 | RBA [2]: 38 | remaining at 2 h (in vitro): > 90%
